In PubChem BioAssay AID1963835 (Molecular Pharmacology Branch, DTP, NCI, 2024):

Test system: 699152-130-R-J1-PDC complex spheroid viability
Assay: Anticancer human tumor 699152-130-R-J1-PDC patient-derived pancreatic carcinoma cell line growth inhibition [POLQ]
Settings: for IC50: curve of first compound; for viability, T/C: stronger effect = lower value
Summary of the method: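 Patient-derived tumour cells were co-cultured with HUVEC and mesenchymal stem cells as multicellular spheroids at 37 °C. They were treated with POLQ inhibitors (novobiocin, ART-558, RP6685) alone or combined with other agents. Top concentrations were at or near clinical Cmax (otherwise 10 microM; SN-38 at 1 microM), decreasing in half-log steps.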

[1] = second compound 0.0316 µM, first compound 0.0316 µM
[2] = second compound 0.0316 µM, first compound 0.1 µM
[3] = second compound 0.1 µM, first compound 0.0316 µM
[4] = second compound 0.1 µM, first compound 0.1 µM
[5] = second compound 0.316 µM, first compound 0.0316 µM
[6] = second compound 0.316 µM, first compound 0.1 µM
[7] = second compound 1 µM, first compound 0.0316 µM
[8] = second compound 1 µM, first compound 0.1 µM
[9] = second compound 3.16 µM, first compound 0.0316 µM
[10] = second compound 3.16 µM, first compound 0.1 µM
[11] = second compound 10 µM, first compound 0.0316 µM
[12] = second compound 10 µM, first compound 0.1 µM
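Also: spheroids exposed to agents for 7 days before viability reading.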
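For viability, T/C in this document: percent of DMSO vehicle control viability so 100% = vehicle and 0% = no viable signal.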

CC(=O)O[C@H]1C(=O)[C@@]2(C)[C@H]([C@H](OC(=O)c3ccccc3)[C@]3(O)C[C@H](OC(=O)[C@H](O)[C@@H](NC(=O)c4ccccc4)c4ccccc4)C(C)=C1C3(C)C)[C@]1(OC(C)=O)CO[C@@H]1C[C@@H]2O + Nc1ccc(C#CCN(C(=O)Cc2ncc(C(F)(F)F)cc2C(F)(F)F)c2ccc(F)cc2)nn1
IC50 (second compound 0.0316 µM): > 3000 nM
IC50 (second compound 0.1 µM): > 3000 nM
IC50 (second compound 0.316 µM): > 3000 nM
IC50 (second compound 1 µM): > 3000 nM
IC50 (second compound 3.16 µM): > 3000 nM
IC50 (second compound 10 µM): > 3000 nM
viability, T/C (second compound 0.0316 µM, first compound 0.00949 µM): 82%
viability, T/C (second compound 0.0316 µM, first compound 0.03 µM): 66.1%
viability, T/C (second compound 0.0316 µM, first compound 0.0949 µM): 62.1%
viability, T/C (second compound 0.0316 µM, first compound 0.3 µM): 67.1%
viability, T/C (second compound 0.0316 µM, first compound 0.949 µM): 72.8%
viability, T/C (second compound 0.0316 µM, first compound 3 µM): 75.6%
viability, T/C (second compound 0.1 µM, first compound 0.00949 µM): 79.8%
viability, T/C (second compound 0.1 µM, first compound 0.03 µM): 69%
viability, T/C (second compound 0.1 µM, first compound 0.0949 µM): 61.4%
viability, T/C (second compound 0.1 µM, first compound 0.3 µM): 63.2%
viability, T/C (second compound 0.1 µM, first compound 0.949 µM): 68.8%
viability, T/C (second compound 0.1 µM, first compound 3 µM): 70.5%
viability, T/C (second compound 0.316 µM, first compound 0.00949 µM): 85.3%
viability, T/C (second compound 0.316 µM, first compound 0.03 µM): 69.2%
viability, T/C (second compound 0.316 µM, first compound 0.0949 µM): 65.5%
viability, T/C (second compound 0.316 µM, first compound 0.3 µM): 68%
viability, T/C (second compound 0.316 µM, first compound 0.949 µM): 64.8%
viability, T/C (second compound 0.316 µM, first compound 3 µM): 72.8%
viability, T/C (second compound 1 µM, first compound 0.00949 µM): 83%
viability, T/C (second compound 1 µM, first compound 0.03 µM): 72.2%
viability, T/C (second compound 1 µM, first compound 0.0949 µM): 65.5%
viability, T/C (second compound 1 µM, first compound 0.3 µM): 65.4%
viability, T/C (second compound 1 µM, first compound 0.949 µM): 71.6%
viability, T/C (second compound 1 µM, first compound 3 µM): 67.7%
viability, T/C (second compound 3.16 µM, first compound 0.00949 µM): 80.9%
viability, T/C (second compound 3.16 µM, first compound 0.03 µM): 68%
viability, T/C (second compound 3.16 µM, first compound 0.0949 µM): 65.4%
viability, T/C (second compound 3.16 µM, first compound 0.3 µM): 69.9%
viability, T/C (second compound 3.16 µM, first compound 0.949 µM): 84.2%
viability, T/C (second compound 3.16 µM, first compound 3 µM): 76.9%
viability, T/C (second compound 10 µM, first compound 0.00949 µM): 97%
viability, T/C (second compound 10 µM, first compound 0.03 µM): 70.5%
viability, T/C (second compound 10 µM, first compound 0.0949 µM): 72.3%
viability, T/C (second compound 10 µM, first compound 0.3 µM): 71.9%
viability, T/C (second compound 10 µM, first compound 0.949 µM): 86.7%
viability, T/C (second compound 10 µM, first compound 3 µM): 78.5%

Nc1ccn(C2OC(CO)C(O)C2(F)F)c(=O)n1 (stereo unspecified) + Cc1cccc(N(C)C(=O)C2C(O)CCN2c2nc(C)cc(C(F)(F)F)c2C#N)c1
IC50 (second compound 0.0316 µM): 958 nM
IC50 (second compound 0.1 µM): 408 nM
IC50 (second compound 0.316 µM): 468 nM
IC50 (second compound 1 µM): 1240 nM
IC50 (second compound 3.16 µM): 2050 nM
IC50 (second compound 10 µM): 3290 nM
viability, T/C [1]: 70.1%
viability, T/C [2]: 57%
viability, T/C (second compound 0.0316 µM, first compound 0.316 µM): 53.7%
viability, T/C (second compound 0.0316 µM, first compound 1 µM): 52.5%
viability, T/C (second compound 0.0316 µM, first compound 3.16 µM): 48%
viability, T/C (second compound 0.0316 µM, first compound 10 µM): 39%
viability, T/C [3]: 75%
viability, T/C [4]: 58.9%
viability, T/C (second compound 0.1 µM, first compound 0.316 µM): 50.3%
viability, T/C (second compound 0.1 µM, first compound 1 µM): 48.8%
viability, T/C (second compound 0.1 µM, first compound 3.16 µM): 45%
viability, T/C (second compound 0.1 µM, first compound 10 µM): 44.7%
viability, T/C [5]: 75%
viability, T/C [6]: 62.3%
viability, T/C (second compound 0.316 µM, first compound 0.316 µM): 49.6%
viability, T/C (second compound 0.316 µM, first compound 1 µM): 44.6%
viability, T/C (second compound 0.316 µM, first compound 3.16 µM): 51.6%
viability, T/C (second compound 0.316 µM, first compound 10 µM): 37.9%
viability, T/C [7]: 74%
viability, T/C [8]: 55.3%
viability, T/C (second compound 1 µM, first compound 0.316 µM): 60.9%
viability, T/C (second compound 1 µM, first compound 1 µM): 52.6%
viability, T/C (second compound 1 µM, first compound 3.16 µM): 44.8%
viability, T/C (second compound 1 µM, first compound 10 µM): 42.1%
viability, T/C [9]: 72.9%
viability, T/C [10]: 63.3%
viability, T/C (second compound 3.16 µM, first compound 0.316 µM): 57.9%
viability, T/C (second compound 3.16 µM, first compound 1 µM): 55%
viability, T/C (second compound 3.16 µM, first compound 3.16 µM): 45.6%
viability, T/C (second compound 3.16 µM, first compound 10 µM): 46.5%
viability, T/C [11]: 76.4%
viability, T/C [12]: 63.5%
viability, T/C (second compound 10 µM, first compound 0.316 µM): 56.6%
viability, T/C (second compound 10 µM, first compound 1 µM): 59.5%
viability, T/C (second compound 10 µM, first compound 3.16 µM): 53.6%
viability, T/C (second compound 10 µM, first compound 10 µM): 42.6%

Cn1ncnc1[C@H]1c2n[nH]c(=O)c3cc(F)cc(c23)N[C@@H]1c1ccc(F)cc1 + COC1C(OC(N)=O)C(O)C(Oc2ccc3c(O)c(NC(=O)c4ccc(O)c(CC=C(C)C)c4)c(=O)oc3c2C)OC1(C)C
IC50 (second compound 0.0316 µM): > 100 nM
IC50 (second compound 0.1 µM): > 100 nM
IC50 (second compound 0.316 µM): > 100 nM
IC50 (second compound 1 µM): > 100 nM
IC50 (second compound 3.16 µM): > 100 nM
IC50 (second compound 10 µM): > 100 nM
viability, T/C (second compound 0.0316 µM, first compound 0.000316 µM): 114%
viability, T/C (second compound 0.0316 µM, first compound 0.001 µM): 86.2%
viability, T/C (second compound 0.0316 µM, first compound 0.00316 µM): 101%
viability, T/C (second compound 0.0316 µM, first compound 0.01 µM): 93.4%
viability, T/C [1]: 92.9%
viability, T/C [2]: 84.8%
viability, T/C (second compound 0.1 µM, first compound 0.000316 µM): 102%
viability, T/C (second compound 0.1 µM, first compound 0.001 µM): 105%
viability, T/C (second compound 0.1 µM, first compound 0.00316 µM): 87.1%
viability, T/C (second compound 0.1 µM, first compound 0.01 µM): 111%
viability, T/C [3]: 85%
viability, T/C [4]: 80%
viability, T/C (second compound 0.316 µM, first compound 0.000316 µM): 101%
viability, T/C (second compound 0.316 µM, first compound 0.001 µM): 99.5%
viability, T/C (second compound 0.316 µM, first compound 0.00316 µM): 92.3%
viability, T/C (second compound 0.316 µM, first compound 0.01 µM): 103%
viability, T/C [5]: 87.8%
viability, T/C [6]: 83.6%
viability, T/C (second compound 1 µM, first compound 0.000316 µM): 119%
viability, T/C (second compound 1 µM, first compound 0.001 µM): 107%
viability, T/C (second compound 1 µM, first compound 0.00316 µM): 101%
viability, T/C (second compound 1 µM, first compound 0.01 µM): 102%
viability, T/C [7]: 93.9%
viability, T/C [8]: 82.5%
viability, T/C (second compound 3.16 µM, first compound 0.000316 µM): 95.3%
viability, T/C (second compound 3.16 µM, first compound 0.001 µM): 89.3%
viability, T/C (second compound 3.16 µM, first compound 0.00316 µM): 90.9%
viability, T/C (second compound 3.16 µM, first compound 0.01 µM): 96.9%
viability, T/C [9]: 90.8%
viability, T/C [10]: 80.8%
viability, T/C (second compound 10 µM, first compound 0.000316 µM): 98.7%
viability, T/C (second compound 10 µM, first compound 0.001 µM): 105%
viability, T/C (second compound 10 µM, first compound 0.00316 µM): 93.9%
viability, T/C (second compound 10 µM, first compound 0.01 µM): 103%
viability, T/C [11]: 88.4%
viability, T/C [12]: 90.4%
